Measured values from patent US20210391038A1, “SPECIFICALLY-SHAPED CRYSTAL OF COMPOUND AND METHOD FOR PRODUCING SAME” (TOWA PHARMACEUTICAL CO., LTD., priority 2018, published 2021).
Structures can show the parent of a compound that is named as a salt. Where two headings read alike, the source gives them in different places.

How the values were obtained:
Assay type in all cases: physicochemical
[1] = Sphericity from SEM images (ImageJ); parameters: key: 1 = true sphere; closer to 1 = more spherical; mean of ≥5 particles
Excerpt: In the present description, “spherulite” means a crystal aggregate (polycrystal) which has a radial or concentric thin layered structure and has a spherical outer shape. Whether the crystal obtained by the method of the present invention is a spherulite or not can be determined, for example, by observing the outer shape of the crystal using SEM. For example, it can be discriminated by cutting the crystal aggregate and observing the internal structure thereof using SEM. The sphericity of the spherulite obtained by the method of the present invention is usually 0.60 or more, preferably 0.70 or more, more preferably 0.80 or more, particularly preferably 0.90 or more, and most preferably 0.95 or more. The sphericity can be calculated by the following method.
When an image of particles taken by SEM is analyzed using image processing software ImageJ, a coordinate group representing the position of pixels forming the outline of a particle is obtained. The length of the coordinate group is defined as N, and one pixel coordinate of each outline is defined as p[i] (1≤i≤N). The angle between a straight line l(k) connecting two points p[k] and p[k+N/D] and a straight line m(k) connecting two points p[k+N/D] and p[k+2N/D] is defined as θ(k) (−180°<θ<180°) (1≤k≤N, 1≤D≤N). D corresponds to the number of partitions of the outline. When N/D is not a natural number, the value is defined as the quotient obtained by dividing N by D. By calculating this angle with k=1 to N, N pieces of θ value can be obtained.
When the particle is a true sphere, θ(k) is 360/D, and the closer the particle is to a true sphere, the closer θ(k) is to this value. The error between θ(k) and the true value 360/D is evaluated by the root-mean-square error (RMSE) of the following formula:
Using the RMSE value of when D is 10 (θ(k)=36°), the sphericity is defined by the following formula: […]
The sphericity is 1 in a true sphere, and the closer the particle is to a true sphere, the closer the sphericity is to 1. Meanwhile, the sphericity of an ellipse whose long axis is infinitely long is zero. The sphericity is measured for five or more particles to calculate the mean. This mean is defined as the sphericity of each sample (see FIGS. 42 and 43).

[2] = Particle size distribution (d50, sharpness index); parameters: key to sharpness index of the crystal thus obtained / sharpness index of the fine powders: calculated by formula from d10, d50, d90; 1.0 = most uniform particle size; conditions: for d50: samples of filtration test (Table 7)
Excerpt: d10 in the present description is a value obtained from a particle size distribution analyzer, and represents a particle size of a particle corresponding to 10% of accumulation from the smaller particle side in the particle size distribution based on the volume.
d50 in the present description is a value obtained from a particle size distribution analyzer, and represents a particle size of a particle corresponding to 50% of accumulation from the smaller particle side in the particle size distribution based on the volume.
“Sharpness index” in the present description is an index representing the uniformity of a particle size of a particle in a powder, and a sharpness index of 1.0 represents a powder having the most uniform particle size. The closer the sharpness index is to 1.0, the more the particle size of the powder is uniform. Specifically, the sharpness index represents a value calculated using the following formula from the values of d10, d50, and d90 measured by a particle size distribution analyzer:
Images for measuring the number of particles were obtained by a scanner GT-X830 manufactured by SEIKO EPSON CORPORATION. The powder X-ray diffraction (XRD) was measured using a desktop X-ray diffraction device MiniFlex300 manufactured by Rigaku Corporation. […] The particle strength was measured using a particle hardness measuring device NEW GRANO manufactured by OKADA SEIKO CO., LTD. […] The purity of a compound was measured by a high performance liquid chromatograph (LC-20A) manufactured by Shimadzu Corporation.

[3] = Measurement of critical degree of supersaturation of spherulite
Excerpt: “Supersaturated solution” in the present description means a solution in a state of containing a solute exceeding the solubility. As the degree of supersaturation, “degree of supersaturation” can be used. Regarding the degree of supersaturation, when the concentration (mass concentration (g/g)) of a compound dissolved in a supersaturated solution is defined as C and the solubility of the compound is defined as Cs, the degree of supersaturation S can be represented by the following formula: […]
“Critical degree of supersaturation” in the present description means the lowest degree of supersaturation required to obtain a specifically-shaped crystal. […] The value of a critical degree of supersaturation varies depending on the shape of a crystal. For example, all of values of a critical degree of supersaturation required to obtain a plate crystal, a critical degree of supersaturation required to obtain a needle crystal, and a critical degree of supersaturation required to obtain a spherulite are different. The critical degree of supersaturation required to obtain a spherulite is higher than the critical degree of supersaturation required to obtain a plate crystal or a needle crystal.
The actual measured value of the critical degree of supersaturation (S*) can be measured as follows:
(1) 100 particles are observed by SEM. (2) 5 to 10 particles whose shape is close to a desired specific shape are selected, and the shape is evaluated. In particular, when the desired specific shape is a sphere, the sphericity is evaluated. (3) Based on the evaluation index of the shape, whether the selected particles have the desired specific shape or not is determined. In particular, when the desired specific shape is a sphere, the case where the sphericity is 0.60 or more is determined as a spherulite. (4) The above-mentioned operation is performed for each sample having a different degree of supersaturation during crystallization, and the minimum value of a degree of supersaturation having the specifically-shaped particles is determined as the critical degree of supersaturation. The difference between the maximum value of a degree of supersaturation not having the specifically-shaped particles and the critical degree of supersaturation should be 20% or less.
The critical degree of supersaturation of a spherulite of ketotifen fumarate was determined as follows. To 2.0 g of ketotifen fumarate, 10 mL (5 v/w) of methanol was added, followed by reflux to completely dissolve. This solution was added dropwise to 50 mL of isopropanol at 20° C. to prepare a supersaturated solution of ketotifen fumarate. The degree of supersaturation of the supersaturated solution at the end of dropwise addition was 9.0. The supersaturated solution was crystallized. The crystal was collected by filtration, followed by drying under reduced pressure at 40° C., thus obtaining a crystal of ketotifen fumarate.
Similarly, when a substrate and a solvent different from those mentioned above are used, a plurality of samples having a different degree of supersaturation are prepared and crystallized, and then the critical degree of supersaturation of the spherulite was measured.

[4] = SEM image analysis, mean of particles
[5] = calculated from d10, d50, d90, trihydrate
[6] = dry particle size distribution, volume based, trihydrate
[7] = SEM image analysis, mean of particles, trihydrate
[8] = dry particle size distribution, volume based

In the case of `NC(CCC(=O)O)C(=O)O` (racemic) [Example 14, DL-glutamic acid], the “sphericity of the spherulite” value [1, 4] is reported as 0.95±0.03.
For `CN1CCC(=C2c3ccccc3CC(=O)c3sccc32)CC1` [Example 1, ketotifen fumarate], the “sphericity of the spherulite” value [1, 4] was 0.78±0.02.
With `COc1ccc2[n-]c([S@@+]([O-])Cc3ncc(C)c(OC)c3C)nc2c1.COc1ccc2[n-]c([S@@+]([O-])Cc3ncc(C)c(OC)c3C)nc2c1.O.O.O.[Mg+2]` [Example 2, esomeprazole magnesium trihydrate] the “sharpness index of the fine powders” value ([2]; after centrifugal classification and sieving) was 1.3, the “d50 of the fine powders” value ([2]; after centrifugal classification and sieving (on 390 M, 38 μm)) was 54.6 μm and the “sharpness index of the crystal thus obtained” value [2, 5] was 2.5. The “d50 of the crystal thus obtained” value [2, 6] was 56.1 μm and the “sphericity of the spherulite” value [1, 7] was 0.95±0.03.
For `COc1ccc2[n-]c([S@@+]([O-])Cc3ncc(C)c(OC)c3C)nc2c1.COc1ccc2[n-]c([S@@+]([O-])Cc3ncc(C)c(OC)c3C)nc2c1.O.O.O.[Mg+2]` [Example 7, esomeprazole magnesium trihydrate], the “sharpness index of the crystal thus obtained” value [2, 5] was 1.40, the “d50 of the crystal thus obtained” value [2, 6] was 189 μm and the “sphericity of the spherulite” value [1, 7] was 0.97±0.01.
For `COc1ccc2[n-]c([S@@+]([O-])Cc3ncc(C)c(OC)c3C)nc2c1.COc1ccc2[n-]c([S@@+]([O-])Cc3ncc(C)c(OC)c3C)nc2c1.O.O.O.[Mg+2]` [Example 10(1), esomeprazole magnesium trihydrate], the “sharpness index of the crystal thus obtained” value [2, 5] was 1.51, the “d50 of the crystal thus obtained” value [2, 6] was 39.9 μm and the d50 ([2]; trihydrate) was 39.9 μm. The “sphericity of the spherulite” value [1, 7] was 0.97±0.01.
In the case of `COc1ccc2[n-]c([S@@+]([O-])Cc3ncc(C)c(OC)c3C)nc2c1.COc1ccc2[n-]c([S@@+]([O-])Cc3ncc(C)c(OC)c3C)nc2c1.O.O.O.[Mg+2]` [Example 10(2), esomeprazole magnesium trihydrate], the “sharpness index of the crystal thus obtained” value [2, 5] is reported as 1.48, the “d50 of the crystal thus obtained” value [2, 6] is reported as 9.6 μm and the d50 ([2]; trihydrate) is reported as 9.6 μm. The “sphericity of the spherulite” value [1, 7] was 0.80±0.05 and the “sphericity of the non-spherulite” value ([1]; non-spherulite crystals, trihydrate) was 0.50±0.06.
With `Cc1c(OCC(F)(F)F)ccnc1C[S+]([O-])c1nc2ccccc2[nH]1` (centres unmarked) [Example 11, lansoprazole] the “sphericity of the spherulite” value [1, 4] was 0.94±0.04.
For `CC[C@H]1OC(=O)[C@H](C)[C@@H](O[C@H]2C[C@@](C)(OC)[C@@H](O)[C@H](C)O2)[C@H](C)[C@@H](O[C@@H]2O[C@H](C)C[C@H](N(C)C)[C@H]2O)[C@](C)(O)C[C@@H](C)CN(C)[C@H](C)[C@@H](O)[C@]1(C)O` [Example 12, azithromycin monohydrate], the “sharpness index of the crystal thus obtained” value ([2]; calculated from d10, d50, d90) was 1.5, the “d50 of the crystal thus obtained” value [2, 8] was 75 μm and the “sphericity of the spherulite” value [1, 4] was 0.89±0.02.
With `CC[C@H]1OC(=O)[C@H](C)[C@@H](O[C@H]2C[C@@](C)(OC)[C@@H](O)[C@H](C)O2)[C@H](C)[C@@H](O[C@@H]2O[C@H](C)C[C@H](N(C)C)[C@H]2O)[C@](C)(OC)C[C@@H](C)C(=O)[C@H](C)[C@@H](O)[C@]1(C)O` [Example 13, clarithromycin] the “sharpness index of the crystal thus obtained” value ([2]; calculated from d10, d50, d90) was 4.6, the “d50 of the crystal thus obtained” value [2, 8] was 16 μm and the “sphericity of the spherulite” value [1, 4] was 0.87±0.08.
In the case of `CNCC[C@H](Oc1cccc2ccccc12)c1cccs1` [Example 15, duloxetine hydrochloride], the “d50 of the crystal thus obtained” value [2] is reported as 138 μm, the “sharpness index of the crystal thus obtained” value [2] is reported as 4.7 and the “sphericity of the spherulite” value [1] is reported as 0.92±0.07.
For `COC(=O)[C@H](c1ccccc1Cl)N1CCc2sccc2C1` [Example 16, clopidogrel sulfate], the “sharpness index of the crystal thus obtained” value ([2]; calculated from d10, d50, d90) was 1.7, the “d50 of the crystal thus obtained” value [2, 8] was 133 μm and the “sphericity of the spherulite” value [1, 4] was 0.96±0.02.
In the case of `O.O.O.O.O.O.O.O.O=C([O-])[O-].O=C([O-])[O-].O=C([O-])[O-].[La+3].[La+3]` [Example 17, lanthanum carbonate octahydrate], the “d50 of the crystal thus obtained” value [2] is reported as 105 μm, the “sharpness index of the crystal thus obtained” value [2] is reported as 1.4 and the “sphericity of the spherulite” value [1] is reported as 0.69±0.08.
In the case of `CN(C)CCC[C@@]1(c2ccc(F)cc2)OCc2cc(C#N)ccc21` [Example 19, escitalopram oxalate], the “sharpness index of the crystal thus obtained” value ([2]; calculated from d10, d50, d90) is reported as 4.87, the “d50 of the crystal thus obtained” value [2, 8] is reported as 50.7 μm and the “sphericity of the spherulite” value [1, 4] is reported as 0.98±0.01.
In the case of `N#C[C@@H]1CCCN1C(=O)CNC12CC3CC(CC(O)(C3)C1)C2` [Example 20, vildagliptin], the “sphericity of the spherulite” value [1, 4] is reported as 0.99±0.01.
With `Cc1cc(N2CCN([C@@H]3CN[C@H](C(=O)N4CCSC4)C3)CC2)n(-c2ccccc2)n1` [Example 22, teneligliptin hydrobromide hydrate] the “sharpness index of the crystal thus obtained” value ([2]; calculated from d10, d50, d90) was 3.77, the “d50 of the crystal thus obtained” value [2, 8] was 33.5 μm and the “sphericity of the spherulite” value [1, 4] was 0.93±0.04.
In the case of `CC(C)[C@H](N)C(=O)OCCOCn1cnc2c(=O)[nH]c(N)nc21` [Valacyclovir hydrochloride], the “Critical degree of supersaturation S Experimental value” ([3]; entry 56, solvent 1 H2O, solvent 2 2-BuOH, solvent 2/solvent 1 ratio 35, crystallization 10 °C) is reported as 48.6.
In the case of `N#C[C@@H]1CCCN1C(=O)CNC12CC3CC(CC(O)(C3)C1)C2` [Vildagliptin], the “actual measured value of the critical degree of supersaturation” value [3] is reported as 9.2, the “Critical degree of supersaturation S Experimental value” ([3]; entry 39, solvent 1 EtOH, solvent 2 TBME, solvent 2/solvent 1 ratio 10, crystallization 0 °C) is reported as 9.2 and the “Critical degree of supersaturation S Experimental value” ([3]; entry 40, solvent 1 EtOH, solvent 2 TBME, solvent 2/solvent 1 ratio 10, crystallization 10 °C) is reported as 7. For the same molecule, the “Critical degree of supersaturation S Experimental value” ([3]; entry 41, solvent 1 MEK, solvent 2 Toluene, solvent 2/solvent 1 ratio 10, crystallization 0 °C) was 8.5, the “Critical degree of supersaturation S Experimental value” ([3]; entry 42, solvent 1 IPA, solvent 2 TBME, solvent 2/solvent 1 ratio 10, crystallization 0 °C) was 11 and the “Critical degree of supersaturation S Experimental value” ([3]; entry 43, solvent 1 IPA, solvent 2 TBME, solvent 2/solvent 1 ratio 10, crystallization 10 °C) was 11.6. For the same molecule, the “Critical degree of supersaturation S Experimental value” ([3]; entry 44, solvent 1 IPA, solvent 2 TBME, solvent 2/solvent 1 ratio 10, crystallization 20 °C) was 11.9.
